Assay results published in ChEMBL document CHEMBL5463729, “Data for DCP probe BAY 1753011” (2023).
Calls of active or inactive are those of the source. The rule behind the calls is not given here.

Experiments:
[1] = biological target: CDK6/cyclin D3 (Homo sapiens) (UniProt P30281+Q00534); assay: Inhibition of CDK6/cyclinD3(h) at 10.0 µM in the Eurofins Kinase panel; assay type: protein-complex assay; conditions: Compound concentration 10.0 uM
[2] = biological target: cAMP-dependent protein kinase catalytic subunit PRKX (Homo sapiens) (UniProt P51817); assay: Inhibition of PrKX(h) at 10.0 µM in the Eurofins Kinase panel; conditions: Compound concentration 10.0 uM
[3] = biological target: D(2) dopamine receptor (Homo sapiens) (UniProt P14416); conditions: Compound concentration 10.0 uM
D(2) dopamine receptor (Homo sapiens), sequence (P14416 whole entry): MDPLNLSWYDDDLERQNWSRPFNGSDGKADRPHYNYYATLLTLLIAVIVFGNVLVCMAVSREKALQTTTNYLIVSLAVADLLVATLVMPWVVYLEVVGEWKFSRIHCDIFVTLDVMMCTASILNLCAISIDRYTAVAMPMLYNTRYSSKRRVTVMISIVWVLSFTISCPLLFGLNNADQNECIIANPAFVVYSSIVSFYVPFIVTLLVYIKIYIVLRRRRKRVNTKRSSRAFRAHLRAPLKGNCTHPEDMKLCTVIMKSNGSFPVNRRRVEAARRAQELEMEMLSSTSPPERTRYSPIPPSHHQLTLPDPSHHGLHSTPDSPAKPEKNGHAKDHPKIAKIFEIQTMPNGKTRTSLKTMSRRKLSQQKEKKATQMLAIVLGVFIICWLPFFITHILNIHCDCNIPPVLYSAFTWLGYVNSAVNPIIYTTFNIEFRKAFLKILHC

[4] = biological target: Vasopressin V2 receptor (Homo sapiens, UniProt P30518); assay: Radiometric AVPR2 binding assay (Eurofins #287610)
[5] = biological target: 3-phosphoinositide-dependent protein kinase 1 (Homo sapiens) (UniProt O15530); assay: Inhibition of PDK1(h) at 10.0 µM in the Eurofins Kinase panel; conditions: Compound concentration 10.0 uM
3-phosphoinositide-dependent protein kinase 1 (Homo sapiens), sequence (O15530 whole entry, looked up): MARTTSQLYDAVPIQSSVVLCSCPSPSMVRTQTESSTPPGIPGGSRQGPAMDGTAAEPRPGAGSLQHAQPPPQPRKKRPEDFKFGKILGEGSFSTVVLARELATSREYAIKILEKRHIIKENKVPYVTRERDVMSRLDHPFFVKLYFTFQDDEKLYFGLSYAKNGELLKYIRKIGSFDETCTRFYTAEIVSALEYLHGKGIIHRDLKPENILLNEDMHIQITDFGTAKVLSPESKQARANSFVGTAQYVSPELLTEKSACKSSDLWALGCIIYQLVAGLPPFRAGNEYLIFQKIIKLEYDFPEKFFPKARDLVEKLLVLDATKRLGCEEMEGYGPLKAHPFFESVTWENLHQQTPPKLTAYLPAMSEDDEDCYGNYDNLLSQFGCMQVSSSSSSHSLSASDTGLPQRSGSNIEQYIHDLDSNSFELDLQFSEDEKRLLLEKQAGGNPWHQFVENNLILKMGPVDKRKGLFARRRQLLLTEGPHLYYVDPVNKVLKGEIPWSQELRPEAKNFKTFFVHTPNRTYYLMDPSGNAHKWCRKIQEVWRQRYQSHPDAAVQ

[6] = biological target: Glutamate NMDA receptor (Rattus norvegicus) (UniProt P35439+Q00959+Q00960+Q00961+Q62645+Q8VHN2+Q9R1M7); conditions: Compound concentration 10.0 uM
[7] = biological target: Serine/threonine-protein kinase Nek3 (Homo sapiens) (UniProt P51956); assay: Inhibition of NEK3(h) at 10.0 µM in the Eurofins Kinase panel; conditions: Compound concentration 10.0 uM
[8] = biological target: T1, Alpha-2A adrenergic receptor (Homo sapiens) (UniProt P08913); conditions: Compound concentration 10.0 uM
T1 sequence (whole entry): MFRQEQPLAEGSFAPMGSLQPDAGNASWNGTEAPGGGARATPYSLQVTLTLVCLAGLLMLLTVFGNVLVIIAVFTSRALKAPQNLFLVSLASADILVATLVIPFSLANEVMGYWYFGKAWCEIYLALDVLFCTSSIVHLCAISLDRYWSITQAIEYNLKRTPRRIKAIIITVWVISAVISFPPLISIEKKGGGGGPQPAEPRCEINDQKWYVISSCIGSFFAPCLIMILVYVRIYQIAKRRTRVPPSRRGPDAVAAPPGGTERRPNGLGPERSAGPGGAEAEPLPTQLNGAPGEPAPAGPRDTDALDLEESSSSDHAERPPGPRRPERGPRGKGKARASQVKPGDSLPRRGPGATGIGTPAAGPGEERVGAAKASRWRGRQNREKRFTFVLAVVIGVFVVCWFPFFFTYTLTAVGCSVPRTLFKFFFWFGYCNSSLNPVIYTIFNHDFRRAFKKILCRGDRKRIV

[9] = biological target: PI3-kinase p110-alpha/p85-alpha (Homo sapiens) (UniProt P27986+P42336); assay: Inhibition of PI3 Kinase (p110a/p85a)(h) at 10.0 µM in the Eurofins Kinase panel; assay type: protein-complex assay; conditions: Compound concentration 10.0 uM
[10] = biological target: Mu-type opioid receptor (Homo sapiens) (UniProt P35372); conditions: Compound concentration 10.0 uM
Mu-type opioid receptor (Homo sapiens), sequence (P35372 whole entry): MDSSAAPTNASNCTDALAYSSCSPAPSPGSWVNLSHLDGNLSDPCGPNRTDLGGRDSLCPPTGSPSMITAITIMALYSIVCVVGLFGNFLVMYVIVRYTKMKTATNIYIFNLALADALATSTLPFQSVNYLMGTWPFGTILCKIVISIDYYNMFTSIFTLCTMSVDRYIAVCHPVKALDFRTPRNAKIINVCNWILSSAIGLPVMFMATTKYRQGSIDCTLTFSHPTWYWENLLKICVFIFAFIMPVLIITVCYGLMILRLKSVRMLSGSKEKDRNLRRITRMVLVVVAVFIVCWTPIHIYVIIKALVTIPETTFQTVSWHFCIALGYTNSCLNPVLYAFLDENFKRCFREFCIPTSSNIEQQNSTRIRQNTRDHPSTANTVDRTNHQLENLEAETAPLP

[11] = biological target: Insulin receptor (Homo sapiens) (UniProt P06213); conditions: Rattus norvegicus; Compound concentration 10.0 uM
Insulin receptor (Homo sapiens), sequence (P06213 28-758 limits assumed): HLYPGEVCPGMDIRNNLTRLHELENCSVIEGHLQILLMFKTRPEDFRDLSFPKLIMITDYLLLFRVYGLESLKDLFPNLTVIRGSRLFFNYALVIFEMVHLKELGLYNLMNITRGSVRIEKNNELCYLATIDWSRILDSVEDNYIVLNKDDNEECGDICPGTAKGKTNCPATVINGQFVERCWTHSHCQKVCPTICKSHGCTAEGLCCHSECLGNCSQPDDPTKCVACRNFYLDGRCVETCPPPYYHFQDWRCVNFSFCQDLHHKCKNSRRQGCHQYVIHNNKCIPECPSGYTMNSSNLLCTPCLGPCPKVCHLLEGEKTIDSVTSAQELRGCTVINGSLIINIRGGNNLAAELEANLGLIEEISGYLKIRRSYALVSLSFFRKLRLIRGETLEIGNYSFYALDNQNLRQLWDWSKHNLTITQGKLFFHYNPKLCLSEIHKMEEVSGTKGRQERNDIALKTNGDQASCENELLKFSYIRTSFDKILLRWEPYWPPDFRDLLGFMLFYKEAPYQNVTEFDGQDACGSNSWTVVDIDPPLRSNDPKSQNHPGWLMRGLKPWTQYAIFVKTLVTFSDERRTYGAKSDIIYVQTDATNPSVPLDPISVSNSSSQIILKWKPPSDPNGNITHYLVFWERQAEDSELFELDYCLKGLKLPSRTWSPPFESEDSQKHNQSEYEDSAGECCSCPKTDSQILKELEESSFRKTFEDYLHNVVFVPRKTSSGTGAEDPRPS
Insulin receptor (Homo sapiens), sequence (P06213 763-1382 limits assumed): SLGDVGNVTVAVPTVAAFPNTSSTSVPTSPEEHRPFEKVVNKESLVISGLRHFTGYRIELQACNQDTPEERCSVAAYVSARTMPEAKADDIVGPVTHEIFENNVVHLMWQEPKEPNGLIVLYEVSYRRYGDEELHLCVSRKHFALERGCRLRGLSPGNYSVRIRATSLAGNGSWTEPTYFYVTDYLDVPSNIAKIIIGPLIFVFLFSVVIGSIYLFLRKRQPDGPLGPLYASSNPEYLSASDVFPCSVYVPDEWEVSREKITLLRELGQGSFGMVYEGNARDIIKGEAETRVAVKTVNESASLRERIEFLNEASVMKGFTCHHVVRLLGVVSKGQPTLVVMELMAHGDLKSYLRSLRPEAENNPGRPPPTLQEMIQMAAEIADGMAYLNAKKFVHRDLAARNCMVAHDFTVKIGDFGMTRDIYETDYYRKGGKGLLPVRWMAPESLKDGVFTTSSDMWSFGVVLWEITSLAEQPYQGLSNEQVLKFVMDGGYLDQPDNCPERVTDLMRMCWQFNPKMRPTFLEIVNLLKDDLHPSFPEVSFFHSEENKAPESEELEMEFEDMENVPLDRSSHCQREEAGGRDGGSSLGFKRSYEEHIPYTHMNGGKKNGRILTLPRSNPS

[12] = biological target: Serine/threonine-protein kinase D2 (Homo sapiens) (UniProt Q9BZL6); assay: Inhibition of PKD2(h) at 10.0 µM in the Eurofins Kinase panel; conditions: Compound concentration 10.0 uM
[13] = biological target: Calcium/calmodulin-dependent protein kinase kinase 1 (Homo sapiens) (UniProt Q8N5S9); assay: Inhibition of CaMKK1(h) at 10.0 µM in the Eurofins Kinase panel; conditions: Compound concentration 10.0 uM
[14] = biological target: Serine/threonine-protein kinase PAK 3 (Homo sapiens) (UniProt O75914); assay: Inhibition of PAK3(h) at 10.0 µM in the Eurofins Kinase panel; conditions: Compound concentration 10.0 uM
[15] = biological target: Ribosomal protein S6 kinase alpha-5 (Homo sapiens) (UniProt O75582); assay: Inhibition of MSK1(h) at 10.0 µM in the Eurofins Kinase panel; conditions: Compound concentration 10.0 uM
[16] = biological target: Tyrosine-protein kinase HCK (Homo sapiens) (UniProt P08631); assay: Inhibition of Hck(h) activated at 10.0 µM in the Eurofins Kinase panel; conditions: Compound concentration 10.0 uM
[17] = biological target: Sodium-dependent serotonin transporter (Homo sapiens) (UniProt P31645); conditions: Compound concentration 10.0 uM
Sodium-dependent serotonin transporter (Homo sapiens), sequence (P31645 whole entry, looked up, canonical isoform): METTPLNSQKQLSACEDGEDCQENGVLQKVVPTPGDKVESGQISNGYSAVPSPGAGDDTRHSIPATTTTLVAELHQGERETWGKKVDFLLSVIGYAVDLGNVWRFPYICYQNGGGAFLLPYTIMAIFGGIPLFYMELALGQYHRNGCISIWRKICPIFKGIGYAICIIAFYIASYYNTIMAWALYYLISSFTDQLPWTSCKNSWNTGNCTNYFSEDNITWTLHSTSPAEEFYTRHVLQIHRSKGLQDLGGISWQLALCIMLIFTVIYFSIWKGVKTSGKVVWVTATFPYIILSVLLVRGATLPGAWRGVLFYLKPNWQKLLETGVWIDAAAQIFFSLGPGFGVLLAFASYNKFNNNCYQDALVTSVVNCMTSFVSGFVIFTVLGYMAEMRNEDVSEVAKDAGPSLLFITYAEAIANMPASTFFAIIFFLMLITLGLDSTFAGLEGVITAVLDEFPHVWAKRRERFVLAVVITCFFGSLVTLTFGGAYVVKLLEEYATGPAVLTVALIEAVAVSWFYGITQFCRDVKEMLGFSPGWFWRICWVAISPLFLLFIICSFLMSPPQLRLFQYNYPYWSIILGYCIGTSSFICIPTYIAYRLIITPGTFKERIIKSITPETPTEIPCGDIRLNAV

[18] = biological target: Phosphorylase b kinase gamma catalytic chain, skeletal muscle/heart isoform (Homo sapiens) (UniProt Q16816); assay: Inhibition of PhKgamma1(h) at 10.0 µM in the Eurofins Kinase panel; conditions: Compound concentration 10.0 uM
Phosphorylase b kinase gamma catalytic chain, skeletal muscle/heart isoform (Homo sapiens), sequence (Q16816 whole entry, looked up, canonical isoform): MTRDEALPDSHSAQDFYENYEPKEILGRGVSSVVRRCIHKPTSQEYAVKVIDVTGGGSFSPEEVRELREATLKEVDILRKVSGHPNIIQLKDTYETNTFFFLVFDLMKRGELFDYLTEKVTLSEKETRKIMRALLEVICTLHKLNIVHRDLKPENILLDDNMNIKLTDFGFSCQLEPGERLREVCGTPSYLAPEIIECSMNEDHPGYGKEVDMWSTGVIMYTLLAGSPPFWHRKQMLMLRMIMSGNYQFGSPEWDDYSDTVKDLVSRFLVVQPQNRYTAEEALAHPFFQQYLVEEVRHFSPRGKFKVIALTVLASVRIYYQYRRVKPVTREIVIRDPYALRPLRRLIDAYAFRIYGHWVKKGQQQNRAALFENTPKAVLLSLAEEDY

[19] = biological target: Beta-3 adrenergic receptor (Homo sapiens) (UniProt P13945); conditions: Compound concentration 10.0 uM
[20] = biological target: Tyrosine-protein kinase CSK (Homo sapiens) (UniProt P41240); assay: Inhibition of CSK(h) at 10.0 µM in the Eurofins Kinase panel; conditions: Compound concentration 10.0 uM
[21] = biological target: D(3) dopamine receptor (Homo sapiens) (UniProt P35462); conditions: Compound concentration 10.0 uM
D(3) dopamine receptor (Homo sapiens), sequence (P35462 whole entry): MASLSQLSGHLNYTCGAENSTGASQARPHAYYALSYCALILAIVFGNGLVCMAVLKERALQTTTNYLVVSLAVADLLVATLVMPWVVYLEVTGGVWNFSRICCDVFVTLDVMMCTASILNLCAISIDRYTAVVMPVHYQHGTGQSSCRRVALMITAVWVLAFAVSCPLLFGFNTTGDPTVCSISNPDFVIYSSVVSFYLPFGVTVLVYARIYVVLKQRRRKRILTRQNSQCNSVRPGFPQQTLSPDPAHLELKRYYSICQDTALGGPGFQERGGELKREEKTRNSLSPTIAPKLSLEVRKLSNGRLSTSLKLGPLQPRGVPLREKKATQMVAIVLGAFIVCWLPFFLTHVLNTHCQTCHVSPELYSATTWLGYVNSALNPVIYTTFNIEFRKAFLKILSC

[22] = biological target: Insulin receptor (Homo sapiens) (UniProt P06213); assay: Inhibition of IR(h) at 10.0 µM in the Eurofins Kinase panel; conditions: Compound concentration 10.0 uM
[23] = biological target: Eukaryotic translation initiation factor 2-alpha kinase 1 (Homo sapiens) (UniProt Q9BQI3); assay: Inhibition of HRI(h) at 10.0 µM in the Eurofins Kinase panel; conditions: Compound concentration 10.0 uM
[24] = biological target: Serine/threonine-protein kinase SBK1 (Homo sapiens) (UniProt Q52WX2); assay: Inhibition of SBK1(h) at 10.0 µM in the Eurofins Kinase panel; conditions: Compound concentration 10.0 uM
Serine/threonine-protein kinase SBK1 (Homo sapiens), sequence (Q52WX2 whole entry): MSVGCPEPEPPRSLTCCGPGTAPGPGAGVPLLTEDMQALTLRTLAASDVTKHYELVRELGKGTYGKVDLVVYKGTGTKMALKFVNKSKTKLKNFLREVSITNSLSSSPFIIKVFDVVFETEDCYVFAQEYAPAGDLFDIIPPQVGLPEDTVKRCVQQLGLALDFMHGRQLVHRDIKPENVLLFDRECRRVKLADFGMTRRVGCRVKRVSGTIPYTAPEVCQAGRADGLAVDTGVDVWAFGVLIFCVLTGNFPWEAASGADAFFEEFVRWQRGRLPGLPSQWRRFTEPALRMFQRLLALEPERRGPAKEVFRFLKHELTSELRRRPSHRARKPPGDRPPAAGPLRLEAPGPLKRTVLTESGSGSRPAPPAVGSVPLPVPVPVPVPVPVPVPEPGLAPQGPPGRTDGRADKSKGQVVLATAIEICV

[25] = biological target: GABA-A receptor; anion channel (Rattus norvegicus) (UniProt O09028+P15431+P18506+P18508+P19969+P20236+P23574+P23576+P28471+P28473+P30191+P62813+P63079+P63138+Q91ZM7+Q9ES14); conditions: Compound concentration 10.0 uM
[26] = biological target: Maternal embryonic leucine zipper kinase (Homo sapiens) (UniProt Q14680); assay: Inhibition of MELK(h) at 10.0 µM in the Eurofins Kinase panel; conditions: Compound concentration 10.0 uM
[27] = biological target: Vasopressin V1a receptor (Homo sapiens, UniProt P37288); assay: Inhibition of Vasopressin V1A at 10.0 µM in the Eurofins-Panlabs selectivity screen
[28] = biological target: Mitogen-activated protein kinase 10 (Homo sapiens) (UniProt P53779); assay: Inhibition of JNK3(h) at 10.0 µM in the Eurofins Kinase panel; conditions: Compound concentration 10.0 uM
[29] = biological target: Protein kinase C zeta type (Homo sapiens) (UniProt Q05513); assay: Inhibition of PKCzeta(h) at 10.0 µM in the Eurofins Kinase panel; conditions: Compound concentration 10.0 uM
[30] = biological target: Phosphatidylinositol 5-phosphate 4-kinase type-2 alpha (Homo sapiens) (UniProt P48426); assay: Inhibition of PIP4K2a(h) at 10.0 µM in the Eurofins Kinase panel; conditions: Compound concentration 10.0 uM
Phosphatidylinositol 5-phosphate 4-kinase type-2 alpha (Homo sapiens), sequence (P48426 whole entry): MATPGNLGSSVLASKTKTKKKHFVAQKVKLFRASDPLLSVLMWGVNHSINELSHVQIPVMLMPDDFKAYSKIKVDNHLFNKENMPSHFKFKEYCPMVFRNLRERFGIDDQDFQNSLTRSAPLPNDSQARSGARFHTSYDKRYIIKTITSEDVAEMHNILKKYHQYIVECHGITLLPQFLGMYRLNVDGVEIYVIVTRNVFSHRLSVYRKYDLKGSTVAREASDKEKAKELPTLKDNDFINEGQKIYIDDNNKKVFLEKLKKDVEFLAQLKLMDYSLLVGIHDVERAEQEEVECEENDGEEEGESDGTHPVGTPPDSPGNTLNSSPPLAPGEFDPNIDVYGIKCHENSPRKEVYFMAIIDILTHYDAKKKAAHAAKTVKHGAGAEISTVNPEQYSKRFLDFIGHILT

[31] = biological target: Receptor-interacting serine/threonine-protein kinase 2 (Homo sapiens) (UniProt O43353); assay: Inhibition of RIPK2(h) at 10.0 µM in the Eurofins Kinase panel; conditions: Compound concentration 10.0 uM
[32] = biological target: Serine/threonine-protein kinase D1 (Homo sapiens) (UniProt Q15139); assay: Inhibition of PKCmu(h) at 10.0 µM in the Eurofins Kinase panel; conditions: Compound concentration 10.0 uM

Row | Structure (SMILES) | inhibition [1] [%] | inhibition [2] [%] | inhibition [3] [%] | Ki [4] | inhibition [5] [%] | inhibition [6] [%] | inhibition [7] [%] | inhibition [8] [%] | inhibition [9] [%] | inhibition [10] [%] | inhibition [11] [%] | inhibition [12] [%] | inhibition [13] [%] | inhibition [14] [%] | inhibition [15] [%] | inhibition [16] [%] | inhibition [17] [%] | inhibition [18] [%] | inhibition [19] [%] | inhibition [20] [%] | other results
1 | O=c1n(Cc2cncn2-c2cccc(Cl)c2)nc(-c2ccc(Cl)cc2)n1C[C@H](O)C(F)(F)F | 0.27 | 6.15 | -8.61 | > 10 µM (not active) | -8.39 | -8 | 5.44 | 5 | -1.29 | 6.13 | 1 | 1.71 | 1.19 | 7.29 | -0.53 | -9.4 | 14.1 | 7.19 | 6 | -8.53 | inhibition [21]: 18.3%; inhibition [22]: -7.3%; inhibition [23]: -5.05%; inhibition [24]: 0.97%; inhibition [25]: -1%; inhibition [26]: 8.95%; Ki [27]: > 10 µM (not active); inhibition [28]: 13.2%; inhibition [29]: 8.34%; inhibition [30]: -2.76%; inhibition [31]: -2.28%; inhibition [32]: 5.31%
2 | C[C@H](O)c1nc(Cn2nc(-c3ccc(Cl)cc3)n(C[C@H](O)C(F)(F)F)c2=O)nn1-c1cccc(Cl)c1 [PECAVAPTAN] | -0.62 | 1.42 | -5.84 | 0.0006 µM (active) | -3.55 | 2 | 61 | 3 | -2.88 | 14.4 | -1 | 1.59 | -5.02 | 1.73 | -5.91 | -3.97 | 9.13 | -1.63 | -10 | -8.59 | inhibition [21]: 19.7%; inhibition [22]: -5.21%; inhibition [23]: 6.64%; inhibition [24]: -2.61%; inhibition [25]: -1%; inhibition [26]: 10.8%; Ki [27]: 0.0005 µM (active); inhibition [28]: 0.72%; inhibition [29]: 18.7%; inhibition [30]: -0.83%; inhibition [31]: -1.02%; inhibition [32]: -6.51%
